Where a name gives a salt, the structure may show the parent alone. Read-outs that look alike come from different tables or passages of the source. A value given as a limit tells only on which side of the number the result lay.

The target in assay [1] is T1, PKC epsilon (Homo sapiens, UniProt Q02156).
T1 construct: purchased Invitrogen P2282
T1 sequence (Q02156 1-737): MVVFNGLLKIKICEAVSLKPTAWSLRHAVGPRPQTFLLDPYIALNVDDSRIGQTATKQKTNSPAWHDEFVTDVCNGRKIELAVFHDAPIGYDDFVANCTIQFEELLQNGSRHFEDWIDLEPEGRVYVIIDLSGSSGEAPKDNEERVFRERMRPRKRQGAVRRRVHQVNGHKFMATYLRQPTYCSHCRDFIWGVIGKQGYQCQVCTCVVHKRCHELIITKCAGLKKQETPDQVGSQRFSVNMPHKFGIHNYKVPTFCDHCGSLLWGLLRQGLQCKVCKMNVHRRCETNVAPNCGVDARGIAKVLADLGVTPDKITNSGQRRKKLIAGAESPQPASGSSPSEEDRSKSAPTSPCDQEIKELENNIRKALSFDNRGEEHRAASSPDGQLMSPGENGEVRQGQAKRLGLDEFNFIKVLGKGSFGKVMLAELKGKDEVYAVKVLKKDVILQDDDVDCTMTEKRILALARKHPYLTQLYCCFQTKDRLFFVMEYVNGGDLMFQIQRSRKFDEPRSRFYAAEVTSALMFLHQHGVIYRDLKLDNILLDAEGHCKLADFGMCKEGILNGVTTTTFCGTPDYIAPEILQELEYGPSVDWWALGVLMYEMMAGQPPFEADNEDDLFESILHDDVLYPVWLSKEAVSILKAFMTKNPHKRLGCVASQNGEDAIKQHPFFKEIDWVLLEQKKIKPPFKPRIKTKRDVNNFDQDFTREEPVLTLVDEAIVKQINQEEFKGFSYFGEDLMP
In words: Biochemical assay for PKC epsilon (fluorescence polarization, Protein Kinase C Assay Kit, Red). The settings on record: read-out: IC50 μM PKCε. The gist of the method: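 Read-out was fluorescence-polarization competition between phosphorylated substrate and a rhodamine PKC tracer for an anti-phosphoserine antibody, added with EDTA stop after an 80 min room-temperature kinase reaction with ATP and protein substrate (Mg2+/Ca2+ buffer). Enzyme (10 ng/ml final) was preincubated with compound for 30 min.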

The target in assay [2] is T2, human ROCKα/ROCKII mix (Homo sapiens, UniProt O75116).
T2 construct: purchased Upstate Biotechnology 14-451
The experiment in a line: Biochemical assay for ROCK (fluorescence polarization, ROCK IMAP Kit).

Where [3] appears, read: compounds of Formula XIV, Table 3.
[4] abbreviates: Table 2, compounds of Formula XIII.

T2 sequence (O75116 11-552 limits assumed): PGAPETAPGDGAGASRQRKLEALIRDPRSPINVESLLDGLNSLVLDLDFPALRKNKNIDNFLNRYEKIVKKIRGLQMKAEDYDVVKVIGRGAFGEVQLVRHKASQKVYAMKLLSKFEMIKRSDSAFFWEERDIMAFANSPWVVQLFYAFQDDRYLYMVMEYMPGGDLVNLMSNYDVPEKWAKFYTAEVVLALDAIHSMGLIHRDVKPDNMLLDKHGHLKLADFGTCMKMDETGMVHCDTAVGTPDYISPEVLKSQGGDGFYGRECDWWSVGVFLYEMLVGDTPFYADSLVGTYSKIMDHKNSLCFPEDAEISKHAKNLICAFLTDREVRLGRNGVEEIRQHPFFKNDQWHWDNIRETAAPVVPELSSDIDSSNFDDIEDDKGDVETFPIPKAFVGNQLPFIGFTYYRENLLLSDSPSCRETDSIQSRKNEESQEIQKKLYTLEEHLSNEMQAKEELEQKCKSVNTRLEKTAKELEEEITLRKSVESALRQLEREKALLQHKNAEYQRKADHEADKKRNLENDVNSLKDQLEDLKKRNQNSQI

In the case of `NC(CC(=O)N[C@@H]1CCc2ccccc21)c1ccc(C(=O)Nc2ccncc2)cc1` (stereo partly drawn) [Compound 358, 4-[1-Amino-2-((R)-indan-1-ylcarbamoyl)-ethyl]-N-pyridin-4-yl-benzamide], the IC50 in assay [1] (setting [3]) and in assay [2] (setting [3]) was 0.05 to 0.5 µM in each case.

On to `NC(CC(=O)NCc1ccc(F)cc1Cl)c1ccc(C(=O)Nc2ccncc2)cc1` (stereo not shown) [Compound 261, 4-[1-Amino-2-(2-chloro-4-fluoro-benzylcarbamoyl)-ethyl]-N-pyridin-4-yl-benzamide], for which the IC50 in assay [1] (setting [3]) is 0.5 to 5 µM; in assay [2] (setting [3]), 0.05 to 0.5 µM.

For the molecule `NC(CNC(=O)CC1CCCC1)c1ccc(C(=O)Nc2ccncc2)cc1` (stereo not shown) [Compound 47, 4-[1-Amino-2-(2-cyclopentyl-acetylamino)-ethyl]-N-pyridin-4-yl-benzamide], the IC50 in assay [1] (setting [4]) and in assay [2] (setting [4]) was 0.5 to 5 µM in each case.

As for `N[C@H](CC(=O)NCc1ccc(F)cc1)c1ccc(C(=O)Nc2ccncc2)cc1` [Compound 401, 4-[(R)-1-Amino-2-(4-fluoro-benzylcarbamoyl)-ethyl]-N-pyridin-4-yl-benzamide dihydrochloric acid salt], the IC50 in assay [1] was less than 0.05 µM; in assay [2], 0.05 to 0.5 µM.

Regarding `NC(CC(=O)NCCc1c(Cl)cccc1Cl)c1ccc(C(=O)Nc2ccncc2)cc1` (stereo not shown) [Compound 302], the IC50 in assay [1] (setting [3]) is 0.5 to 5 µM; in assay [2] (setting [3]), 0.05 to 0.5 µM.

Turning to `NC(c1ccc(C(=O)Nc2ccncc2)cc1)C1CCCN1C(=O)C1(c2cccs2)CC1` (stereo not shown) [Compound 549, 4-{Amino-[1-(1-thiophen-2-yl-cyclopropanecarbonyl)-pyrrolidin-2-yl]-methyl}-N-pyridin-4-yl-benzamide], the half-maximal inhibitory concentration (IC50) in assay [1] lay within 5 to 50 µM; in assay [2], 0.5 to 5 µM.

Turning to `NC(CNC(=O)C1CCCCC1)c1ccc(C(=O)Nc2ccncc2)cc1` (stereo not shown) [Compound 43, 4-[1-Amino-2-(cyclohexanecarbonyl-amino)-ethyl]-N-pyridin-4-yl-benzamide], the results for the IC50 in assay [1] (setting [4]) and in assay [2] (setting [4]) were 5 to 50 µM and 0.5 to 5 µM, respectively.

As to `CC[C@H](NC(=O)CC(N)c1ccc(C(=O)Nc2ccncc2)cc1)c1ccccc1` (stereo partly drawn) [Compound 217, 4-[1-Amino-2-(1-(S)-phenyl-propylcarbamoyl)-ethyl]-N-pyridin-4-yl-benzamide], the IC50 in assay [1] (setting [3]) was 0.5 to 5 µM; in assay [2] (setting [3]), 0.05 to 0.5 µM.

Take `NC(c1ccc(C(=O)Nc2ccncc2)cc1)C1CCCN1C(=O)Cc1cncc(Br)c1` (stereo not shown) [Compound 543, 4-(Amino-{1-[2-(5-bromo-pyridin-3-yl)-acetyl]-pyrrolidin-2-yl}-methyl)-N-pyridin-4-yl-benzamide]: the concentration for half-maximal inhibition (IC50) in assay [1] lay within 5 to 50 µM; in assay [2], 0.5 to 5 µM.

Consider `NC(c1ccc(C(=O)Nc2ccncc2)cc1)C1CCCN1C(=O)C1(c2ccc(F)cc2Cl)CC1` (stereo not shown) [Compound 600, 4-(Amino-{1-[1-(2-chloro-4-fluoro-phenyl)-cyclopropanecarbonyl]-pyrrolidin-2-yl}-methyl)-N-pyridin-4-yl-benzamide], for which the IC50 in assay [1] and in assay [2] was 0.5 to 5 µM in each case.

With `NC(CC(=O)Nc1ccc2cc[nH]c2c1)c1ccc(C(=O)Nc2ccncc2)cc1` (stereo not shown) [Compound 322, 4-[1-Amino-2-(1H-indol-6-ylcarbamoyl)-ethyl]-N-pyridin-4-yl-benzamide], the IC50 in assay [1] (setting [3]) and in assay [2] (setting [3]) was 0.05 to 0.5 µM each time.

For the molecule `NC(c1ccc(C(=O)Nc2ccncc2)cc1)C1CCCN1C(=O)C(c1ccccc1)C1CCCCC1` (stereo not shown) [Compound 555, 4-{Amino-[1-(2-cyclohexyl-2-phenyl-acetyl)-pyrrolidin-2-yl]-methyl}-N-pyridin-4-yl-benzamide], the IC50 in assay [1] and in assay [2] was 0.5 to 5 µM throughout.

For the molecule “4-(1-Amino-2-{[2-(5-bromo- pyridin-3-yl)-acetyl]-methyl- amino}-ethyl)- N-pyridin-4-yl-benzamide [Compound 442]”, the figures for the IC50 in assay [1] and in assay [2] were 5 to 50 µM and 0.5 to 5 µM, respectively.

As to `NC(c1ccc(C(=O)Nc2ccncc2)cc1)C1CCCN1C(=O)Cc1ccc(F)cc1` (stereo not shown) [Compound 572, 4-(Amino-{1-[2-(4-fluoro-phenyl)-acetyl]-pyrrolidin-2-yl}-methyl)-N-pyridin-4-yl-benzamide], the IC50 lay in the range of 5 to 50 µM in assay [1] and 0.5 to 5 µM in assay [2].

As to `NC(CC(=O)NCc1ccccc1OC(F)(F)F)c1ccc(C(=O)Nc2ccncc2)cc1` (stereo not shown) [Compound 269, 4-[1-Amino-2-(2-trifluoromethoxy-benzylcarbamoyl)-ethyl]-N-pyridin-4-yl-benzamide], the IC50 in assay [1] (setting [3]) lay within 0.5 to 5 µM; in assay [2] (setting [3]), 0.05 to 0.5 µM.

Regarding `NC(CNC(=O)c1cccs1)c1ccc(C(=O)Nc2ccncc2)cc1` (stereo not shown) [Compound 116, Thiophene-2-carboxylic acid {2-amino-2-[4-(pyridin-4-ylcarbamoyl)-phenyl]-ethyl}-amide], the IC50 in assay [1] (setting [4]) and in assay [2] (setting [4]) was 0.05 to 0.5 µM each time.

For `CC(C)(C(=O)N1CCCC1C(N)c1ccc(C(=O)Nc2ccncc2)cc1)c1ccc(F)c(Cl)c1` (stereo not shown) [Compound 606, 4-(Amino-{1-[2-(3-chloro-4-fluoro-phenyl)-2-methyl-propionyl]-pyrrolidin-2-yl}-methyl)-N-pyridin-4-yl-benzamide], the half-maximal inhibitory concentration (IC50) in assay [1] and in assay [2] was 0.5 to 5 µM each time.

`Cc1cccc(CN2CCC(NC(=O)CC(N)c3ccc(C(=O)Nc4ccncc4)cc3)CC2)c1` (stereo not shown) [Compound 201, 4-{1-amino-2-[1-(3-methyl-benzyl)-piperidin-4-ylcarbamoyl]-ethyl}-N-pyridin-4-yl-benzamide]: the IC50 in assay [1] (setting [3]) was 0.5 to 5 µM; in assay [2] (setting [3]), 0.05 to 0.5 µM.

For `NC(CNC(=O)C1CCSc2ccccc21)c1ccc(C(=O)Nc2ccncc2)cc1` (stereo not shown) [Compound 391, Thiochroman-4-carboxylic acid {2-amino-2-[4-(pyridin-4-ylcarbamoyl)-phenyl]-ethyl}-amide], the IC50 in assay [1] (setting [4]) and in assay [2] (setting [4]) was 0.05 to 0.5 µM throughout.

Consider `COc1cccc(CNC(=O)CC(N)c2ccc(C(=O)Nc3ccncc3)cc2)c1OC` (stereo not shown) [Compound 238, 4-[1-Amino-2-(2,3-dimethoxy-benzylcarbamoyl)-ethyl]-N-pyridin-4-yl-benzamide], for which the IC50 lay within 5 to 50 µM in assay [1] (setting [3]) and 0.05 to 0.5 µM in assay [2] (setting [3]).

Regarding `NC(CNC(=O)CCc1ccccc1)c1ccc(C(=O)Nc2ccncc2)cc1` (stereo not shown) [Compound 162], the half-inhibitory concentration (IC50) is 0.5 to 5 µM in assay [1] (setting [4]) and 0.05 to 0.5 µM in assay [2] (setting [4]).

On to `CONC(=O)CC(N)c1ccc(C(=O)Nc2ccncc2)cc1` (stereo not shown) [Compound 183, 4-(1-amino-2-methoxycarbamoyl-ethyl)-N-pyridin-4-yl-benzamide], for which the IC50 in assay [1] (setting [3]) was in the range of 0.5 to 5 µM; in assay [2] (setting [3]), 0.05 to 0.5 µM.

With `NC(CC(=O)NCc1cc(Cl)cc(Cl)c1)c1ccc(C(=O)Nc2ccncc2)cc1` (stereo not shown) [Compound 250, 4-[1-Amino-2-(3,5-dichloro-benzylcarbamoyl)-ethyl]-N-pyridin-4-yl-benzamide], the results for the IC50 in assay [1] (setting [3]) and in assay [2] (setting [3]) were 0.5 to 5 µM and 0.05 to 0.5 µM, respectively.

Regarding `NC(CNC(=O)c1ccccc1Nc1ccccc1)c1ccc(C(=O)Nc2ccncc2)cc1` (stereo not shown) [Compound 82, 4-[1-amino-2-(2-phenylamino-benzoylamino)-ethyl]-N-pyridin-4-yl-benzamide], the 50% inhibitory concentration (IC50) in assay [1] (setting [4]) and in assay [2] (setting [4]) was 0.5 to 5 µM each time.

For `CN(CC(N)c1ccc(C(=O)Nc2ccncc2)cc1)C(=O)Cc1ccc(Cl)c(Cl)c1` (stereo not shown) [Compound 491, 4-(1-Amino-2-{[2-(3,4-dichloro-phenyl)-acetyl]-methyl-amino}-ethyl)-N-pyridin-4-yl-benzamide], the IC50 lay in the range of 5 to 50 µM in assay [1] and 0.5 to 5 µM in assay [2].

Take `COc1ccc(C2(C(=O)N3CCCC3C(N)c3ccc(C(=O)Nc4ccncc4)cc3)CCCC2)cc1` (stereo not shown) [Compound 530, 4-(Amino-{1-[1-(4-methoxy-phenyl)-cyclopentanecarbonyl]-pyrrolidin-2-yl}-methyl)-N-pyridin-4-yl-benzamide]: the half-maximal inhibitory concentration (IC50) in assay [1] and in assay [2] was 0.5 to 5 µM in each case.

Take `CC(=NOC(C)(C)C)c1ccc(C(=O)NCC(N)c2ccc(C(=O)Nc3ccncc3)cc2)s1` (stereo not shown) [Compound 118, 5-(1-tert-Butoxyimino-ethyl)-thiophene-2-carboxylic acid {2-amino-2-[4-(pyridin-4-ylcarbamoyl)-phenyl]-ethyl}-amide]: the IC50 in assay [1] (setting [4]) lay in the range of 5 to 50 µM; in assay [2] (setting [4]), 0.5 to 5 µM.

For the molecule `CC(C)C(C(=O)N1CCCC1C(N)c1ccc(C(=O)Nc2ccncc2)cc1)c1ccc(Cl)cc1` (stereo not shown) [Compound 562, 4-(Amino-{1-[2-(4-chloro-phenyl)-3-methyl-butyryl]-pyrrolidin-2-yl}-methyl)-N-pyridin-4-yl-benzamide], the IC50 in assay [1] and in assay [2] was 0.5 to 5 µM throughout.

For “4-{1-Amino-2-[ethyl-(4-nitro- benzyl}-carbamoyl]-ethyl)-N- pyridin-4-yl-benzamide [Compound 274]”, the IC50 was in the range of 0.5 to 5 µM in assay [1] (setting [3]) and 0.05 to 0.5 µM in assay [2] (setting [3]).
